US8933195B2, “Histone deacetylase inhibitors and synthetic method thereof and use thereof in manufacture of medicaments” (Nanjing Yoko Biomedical R & D Ltd., priority 2011, dated 2015)
pIC50: −log10 of the molar value.

How the values were obtained:
HDAC1 = HDAC1 (Homo sapiens, UniProt Q13547); test: Measurement of biochemical activities of HDAC (fluorescently-labeled acetylated lysine substrate); conditions: read-out: IC50 HDAC1
Description: (§1) 1. Measurement principles: the measurement of biochemical activities of compounds is determined according to the degree of the compounds inhibiting the deacylation of HDAC enzyme. After the fluorescently-labeled substrate containing acetylated lysine side chain reacts with the HDAC enzyme, the fluorogenic substrate is deacetylated. After the deacetylated fluorescently-labeled substrate is cracked by the enzyme, a fluorescent substance is released. The fluorescent substance generates emitting light of 460 nm under the excitation of light of 360 nm.
(§2) 2. Detailed steps: the substrate of HDAC is diluted to […] (the reaction concentration is […]) with a reaction buffer. HDAC enzyme is diluted to a proper concentration. The compounds to be detected in different concentrations are added. The mixture reacts for 30 min at 37. Then the developer with the same volume and twice concentration of the substrate is added into the mixture. The mixture is incubated for 15 min at room temperature. Finally, the reading is measured with a micro plate scanner. The excitation light is 360 nm, the emitting light is 460 nm, and the data is processed with Prime 4 software.

HDAC7 = molecular target: T1, HDAC7 (Homo sapiens, UniProt Q8WUI4); test: as above
T1 sequence (Q8WUI4 1-952): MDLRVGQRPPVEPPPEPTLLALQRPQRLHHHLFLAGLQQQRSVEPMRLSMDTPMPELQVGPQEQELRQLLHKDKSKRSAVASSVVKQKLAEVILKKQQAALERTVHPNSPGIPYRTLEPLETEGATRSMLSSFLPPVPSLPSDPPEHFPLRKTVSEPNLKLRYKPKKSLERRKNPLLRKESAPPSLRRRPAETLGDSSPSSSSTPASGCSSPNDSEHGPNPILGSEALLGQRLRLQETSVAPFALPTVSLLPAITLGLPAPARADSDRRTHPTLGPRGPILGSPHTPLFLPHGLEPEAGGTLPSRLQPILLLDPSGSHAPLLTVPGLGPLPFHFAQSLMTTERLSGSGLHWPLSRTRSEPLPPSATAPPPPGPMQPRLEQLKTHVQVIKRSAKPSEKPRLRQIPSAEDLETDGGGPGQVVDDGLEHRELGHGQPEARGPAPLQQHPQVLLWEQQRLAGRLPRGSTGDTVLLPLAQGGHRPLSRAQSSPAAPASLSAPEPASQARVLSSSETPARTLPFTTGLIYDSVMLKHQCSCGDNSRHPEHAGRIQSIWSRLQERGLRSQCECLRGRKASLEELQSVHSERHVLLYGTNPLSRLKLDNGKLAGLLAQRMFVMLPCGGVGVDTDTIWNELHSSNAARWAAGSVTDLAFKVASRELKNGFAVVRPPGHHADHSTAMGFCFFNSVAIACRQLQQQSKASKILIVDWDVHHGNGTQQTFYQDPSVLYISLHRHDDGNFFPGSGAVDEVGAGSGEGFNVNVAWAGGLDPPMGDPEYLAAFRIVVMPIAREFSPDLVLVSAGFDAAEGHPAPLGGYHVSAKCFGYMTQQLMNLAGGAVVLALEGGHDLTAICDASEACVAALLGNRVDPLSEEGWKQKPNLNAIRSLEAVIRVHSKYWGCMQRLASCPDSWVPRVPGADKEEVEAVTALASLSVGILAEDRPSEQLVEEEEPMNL
Description: as §1, §2

[1] = test system: MCF-7 (human breast cancer cells); test: MTT cancer cell growth inhibition; format: cell-based; conditions: MCF7, 72 h
From the text: (§3) 1. Experimental principles: the inhibition of cancer cell growth with compounds is detected by an MTT method. The principle of the MTT method is as follows: yellow thiazolyl blue may penetrate through cell membranes and enter into cells, succinate dehydrogenase in living cell mitochondria may reduce exogenous MTT into water-insoluble ianthinus acicular Formazan crystals which deposit in the cells, the crystals can be dissolved with dimethyl sulfoxide (DMSO), the optical density of the crystals is detected with an enzyme-linked immunometric meter at the wavelength of 490 nm/570 nm, and the number of cells can be indirectly reflected.
(§4) 2. Experimental materials: the used cancer cell lines are Hela (human cervical cancer cells), MCF-7 (human breast cancer cells), BGC-823 (human gastric cancer cells), A549 (human lung cancer cells), HT1080 (human fibrosarcoma cells), A431 (human epidermal squamous cell carcinoma cells), HUVEC (human umbilical vein endothelial cells), DU145 (human prostate cancer cells), K562 (human leukemia cells), U937 (human leukemia cells), Pac-1 (human pancreatic cancer cells), and MOLT-4 (human acute lymphoblastic leukemia cells), which are cultured with a DMEM+10% FBS culture medium or a 1640+10% FBS culture medium, respectively.
(§5) Experimental groups: 190 μl cell suspension+10 μl pharmaceuticals in different concentrations (the final concentration is 10^−5-10^−10M)
(§6) Negative control group: 190 μl cell suspension+10 μl 2% DMSO (the final concentration of DMSO is 0.1%)
(§7) a) Cells are inoculated on a 96-pore plate, with 1500 cells and 190 μl for each hole, and cultured overnight in a 5% CO2 incubator at 37.
(§8) b) 10 μl of different pharmaceuticals is added into each hole the next day, with the final concentration of the pharmaceuticals of 10^−5-10^−10M and three parallel holes, and incubated for 72 h in a 5% CO2 incubator at 37.
(§9) c) 20 μl of 5 mg/mL MTT is added into each hole, and incubated for 4 h in a 5% CO2 incubator at 37.
(§10) d) Supernatant is removed. 100 μl of DMSO is added into each hole and vibrated.
(§11) e) The reading is 570 nm. The cell survival rate is calculated.

[2] = test system: MOLT-4 (human acute lymphoblastic leukemia cells); test: MTT cancer cell growth inhibition; format: cell-based; conditions: 72 h
From the text: as §3, §4, §5, §6, §7, §8, §9, §10, §11

[3] = test system: U937 (human leukemia cells); test: MTT cancer cell growth inhibition; format: cell-based; conditions: U-937, 72 h
From the text: as §3, §4, §5, §6, §7, §8, §9, §10, §11

PANC-1 = test: MTT cancer cell growth inhibition; format: cell-based; conditions: Homo sapiens, 72 h
From the text: as §3, §4, §5, §6, §7, §8, §9, §10, §11

[4] = test system: Hela (human cervical cancer cells); test: MTT cancer cell growth inhibition; format: cell-based; conditions: 72 h
From the text: as §3, §4, §5, §6, §7, §8, §9, §10, §11

[5] = test system: HT1080 (human fibrosarcoma cells); test: MTT cancer cell growth inhibition; format: cell-based; conditions: HT-1080, 72 h
From the text: as §3, §4, §5, §6, §7, §8, §9, §10, §11

[6] = test system: BGC-823 (human gastric cancer cells); test: MTT cancer cell growth inhibition; format: cell-based; conditions: 72 h, read-out: GI50 BGC823
From the text: as §3, §4, §5, §6, §7, §8, §9, §10, §11

[7] = test system: A549 (human lung cancer cells); test: MTT cancer cell growth inhibition; format: cell-based; conditions: 72 h
From the text: as §3, §4, §5, §6, §7, §8, §9, §10, §11

[8] = test system: DU145 (human prostate cancer cells); test: MTT cancer cell growth inhibition; format: cell-based; conditions: DU-145, 72 h
From the text: as §3, §4, §5, §6, §7, §8, §9, §10, §11

Incap = test: MTT cancer cell growth inhibition; format: cell-based; conditions: 72 h

HDAC1, sequence (Q13547 whole entry, species assumed): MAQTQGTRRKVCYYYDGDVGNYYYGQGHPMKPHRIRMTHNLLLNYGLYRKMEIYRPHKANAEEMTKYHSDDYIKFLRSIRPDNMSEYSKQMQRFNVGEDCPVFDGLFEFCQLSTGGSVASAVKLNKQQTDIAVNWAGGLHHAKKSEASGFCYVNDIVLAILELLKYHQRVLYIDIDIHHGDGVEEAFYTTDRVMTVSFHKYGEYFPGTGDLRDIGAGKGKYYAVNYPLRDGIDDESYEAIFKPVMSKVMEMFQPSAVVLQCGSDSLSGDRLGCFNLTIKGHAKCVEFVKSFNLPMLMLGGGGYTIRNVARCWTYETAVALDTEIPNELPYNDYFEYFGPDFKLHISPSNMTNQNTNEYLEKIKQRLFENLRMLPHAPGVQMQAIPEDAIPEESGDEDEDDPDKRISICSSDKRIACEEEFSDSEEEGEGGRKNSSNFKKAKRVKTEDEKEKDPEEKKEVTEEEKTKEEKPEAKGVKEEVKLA

Compound	pIC50 (HDAC1)	IC50 HDAC7 (HDAC7)	GI50 [1] [nM]	GI50 [2] [nM]	GI50 [3] [nM]	GI50 (PANC-1) [nM]	GI50 [4] [nM]	GI50 [5] [nM]	GI50 [6] [nM]	GI50 [7] [nM]	GI50 [8] [nM]	GI50 (Incap) [nM]
CCCCCCCC(=O)SCC/C=C/[C@@H]1CC(=O)NCc2nc(cs2)C(=O)NCC(=O)N[C@@H](C(C)C)C(=O)O1 [Compound 3-3]	> 5.00	no activity	1200	2120	140	4130	450	60	5940	1090	50	450
C/C=C1\NC(=O)c2csc(n2)[C@H](Cc2ccc(O)cc2)NC(=O)C[C@@H](/C=C/CCSC(=O)CCCCCCC)OC(=O)[C@H](C(C)C)NC1=O [Compound 4-4]	> 5.00	no activity	6	50	10200	3010	1000	650	1020	10	2100	4260
C/C=C1\NC(=O)c2csc(n2)CNC(=O)C[C@@H](/C=C/CCSC(=O)CCCCCCC)OC(=O)CNC1=O [Compound 1-1]	> 7.00	no activity	90	9	7	300	400	50	100	90	8	50
C/C=C1\NC(=O)c2csc(n2)CNC(=O)C[C@@H](/C=C/CCSC(=O)CCN)OC(=O)[C@H](C(C)C)NC1=O [Compound 6-6]	> 6.00	no activity	952	56400	1290	1650	860	4160	65	1	300	650
C/C=C1\NC(=O)c2csc(n2)CNC(=O)C[C@@H](/C=C/CCSC(=O)CCCCCCC)OC(=O)[C@H](C)N(C)C1=O [Compound 5-1]	> 5.00	no activity	3650	10	340	650	3050	19600	2100	21300	650	73500
C/C=C1\NC(=O)c2csc(n2)CNC(=O)C[C@@H](/C=C/CCSC(=O)CCCCCCC)OC(=O)[C@@H](C)NC1=O [Compound 1-5]	> 5.00	no activity	800	1000	100	3000	2000	1000	100	600	100	600
C/C=C1\NC(=O)C2=NC(=NC2)CNC(=O)C[C@@H](/C=C/CCSC(=O)CCCCCCC)OC(=O)[C@H](C(C)C)NC1=O [Compound 2-5]	> 5.00	no activity	26000	1030	21000	26400	12000	1020	20600	2130	5460	560
C/C=C1\NC(=O)c2csc(n2)CNC(=O)C[C@@H](/C=C/CCSC(=O)CCCCCCC)OC(=O)[C@H](CCSC)NC1=O [Compound 1-10]	> 7.00	no activity	1	20	20	1300	100	100	200	100	10	80
C/C=C1\NC(=O)c2coc(n2)CNC(=O)C[C@@H](/C=C/CCSC(=O)CCCCCCC)OC(=O)[C@H](C(C)C)NC1=O [Compound 2-1]	> 7.00	no activity	500	100	1300	2060	200	4100	5000	900	50	2010
CCCCCCCC(=O)SCC/C=C/[C@@H]1CC(=O)NCc2nc(cs2)C(=O)N[C@H](CC)C(=O)N[C@@H](C(C)C)C(=O)O1 [Compound 3-2]	> 5.00	no activity	100	1060	5260	1230	600	1350	1020	360	1060	1420
C=C1NC(=O)c2csc(n2)CNC(=O)C[C@@H](/C=C/CCSC(=O)CCCCCCC)OC(=O)[C@H](C(C)C)NC1=O [Compound 3-1]	> 5.00	no activity	2100	150	21500	10600	10	1060	1200	350	2030	5400
C/C=C1\NC(=O)c2csc(n2)CNC(=O)C[C@@H](/C=C/CCSC(C)=O)OC(=O)[C@H](C(C)C)NC1=O [Compound 6-2]	> 5.00	no activity	59600	400	2650	680	73500	41000	4600	15600	1600	900
C/C=C1\NC(=O)c2csc(n2)[C@H](C)NC(=O)C[C@@H](/C=C/CCSC(=O)CCCCCCC)OC(=O)[C@H](C(C)C)NC1=O [Compound 4-2]	> 7.00	no activity	150	2000	5010	1030	1230	30	2120	25100	4020	1230
